Test system: estradiol-induced increase in uterine weight
Test: Anti-estrogenic activity (oral administration): inhibition of estradiol-induced increase in uterine weight in ovariectomized mice
Format: in vivo, mice (ICR)
Details: ovariectomized mice given 17β-estradiol-benzoate 0.1 μg/mouse s.c. for 3 days, test compound 10 mg/kg p.o., once a day, uterine weight 24 hours after last administration
Procedure: Test compounds were assayed for their oral anti-estrogenic activity in the following manner. In this experiment, the compounds prepared in Examples 2 and 3 were used as test compounds and the corresponding racemic mixture (10-[(3RS,4RS)-7-hydroxy-3-(4-hydroxyphenyl)-3-methylthiochroman-4-yl]-2-(4,4,5,5,5-pentafluoropentyl)decanoic acid was used as a control compound. This control compound was synthesized according to Reaction Schemes 1 to 7 mentioned above.
In this experiment, each of the test and control compounds was suspended in 5% arabic gum solution and orally administered for 3 days on a once-a-day basis. After 24 hours from the last administration, the test animals were sacrificed and the uteri were removed and weighed.

Row | SMILES | Inhibition (%) | Inhibition (%) (10 mg/kg)
1 | C[C@@]1(c2ccc(O)cc2)CSc2cc(O)ccc2[C@@H]1CCCCCCCCC(CCCC(F)(F)C(F)(F)F)C(=O)O (mixture of isomers) [10-[(3RS,4RS)-7-hydroxy-3-(4-hydroxyphenyl)-3-methylthiochroman-4-yl]-2-(4,4,5,5,5-pentafluoropentyl)decanoic acid, reference compound] | 75 | –
2 | C[C@@]1(c2ccc(O)cc2)CSc2cc(O)ccc2[C@@H]1CCCCCCCCC(CCCC(F)(F)C(F)(F)F)C(=O)O (single isomer, unassigned) [Example 10, Peak 1] | – | 87
3 | C[C@@]1(c2ccc(O)cc2)CSc2cc(O)ccc2[C@@H]1CCCCCCCCC(CCCC(F)(F)C(F)(F)F)C(=O)O (single isomer, unassigned) [Example 10, Peak 2] | – | 78
4 | C[C@@]1(c2ccc(O)cc2)CSc2cc(O)ccc2[C@@H]1CCCCCCCCC(CCCC(F)(F)C(F)(F)F)C(=O)O (stereo partly drawn) [Example 2, 10-[(3R,4R)-7-Hydroxy-3-(4-hydroxyphenyl)-3-methylthiochroman-4-yl]-2-(4,4,5,5,5-pentafluoropentyl)decanoic Acid] | 90 | –
5 | C[C@]1(c2ccc(O)cc2)CSc2cc(O)ccc2[C@H]1CCCCCCCCC(CCCC(F)(F)C(F)(F)F)C(=O)O (stereo partly drawn) [Example 3, 10-[(3S,4S)-7-Hydroxy-3-(4-hydroxyphenyl)-3-methylthiochroman-4-yl]-2-(4,4,5,5,5-pentafluoropentyl)decanoic Acid] | 69 | –

Reference: US6610733B2, “Optically active chroman and thiochroman derivatives” (Chugai Seiyaku Kabushiki Kaisha, priority 1999, dated 2003)
